This is an account of results in patent US20240190854A1, “PYRIMIDINE OR PYRIDINE DERIVATIVES USEFUL AS HCN2 MODULATORS” (King's College London, priority 2021, published 2024).

Counter-ions that a name gives are not always drawn. A value given as a limit tells only on which side of the number the result lay.

One assay deals with HCN2 (Homo sapiens (Human), UniProt Q9UL51). In words: HCN2 current assay using PatchXpress 7000A. The format is cell-based. The note with it: PatchXpress protocol; read-out: PX HCN2 IC50. The method, then: (§1) Example 126A, Using PatchXpress 7000A
(§2) Solutions for recording HCN currents were:
The membrane voltage was then stepped back to −30 mV for a further 8 seconds.
(§3) The peak inward current measured at the end of the pulse to −110 mV (HCN1 and HCN2) or −130 mV (HCN4) was measured and any leak current subtracted to calculate the HCN current. The HCN current amplitude was measured after each control or compound addition and normalized to the control amplitude (Control A).
(§4) All experiments were performed at room temperature (approximately 22° C.).
(§5) Each test compound concentration was applied to the cell for seven (7) minutes, at which point the next cumulative concentration was applied.

The next assay has as its target HCN4 (Homo sapiens (Human), UniProt Q9Y3Q4). In words: HCN4 current assay using PatchXpress 7000A. The format is cell-based. The note with it: PatchXpress protocol; read-out: PX HCN4 IC50. The method, then:
as §1, §2, §3, §4, §5

Chain of HCN4 (Q9Y3Q4 whole entry, species assumed): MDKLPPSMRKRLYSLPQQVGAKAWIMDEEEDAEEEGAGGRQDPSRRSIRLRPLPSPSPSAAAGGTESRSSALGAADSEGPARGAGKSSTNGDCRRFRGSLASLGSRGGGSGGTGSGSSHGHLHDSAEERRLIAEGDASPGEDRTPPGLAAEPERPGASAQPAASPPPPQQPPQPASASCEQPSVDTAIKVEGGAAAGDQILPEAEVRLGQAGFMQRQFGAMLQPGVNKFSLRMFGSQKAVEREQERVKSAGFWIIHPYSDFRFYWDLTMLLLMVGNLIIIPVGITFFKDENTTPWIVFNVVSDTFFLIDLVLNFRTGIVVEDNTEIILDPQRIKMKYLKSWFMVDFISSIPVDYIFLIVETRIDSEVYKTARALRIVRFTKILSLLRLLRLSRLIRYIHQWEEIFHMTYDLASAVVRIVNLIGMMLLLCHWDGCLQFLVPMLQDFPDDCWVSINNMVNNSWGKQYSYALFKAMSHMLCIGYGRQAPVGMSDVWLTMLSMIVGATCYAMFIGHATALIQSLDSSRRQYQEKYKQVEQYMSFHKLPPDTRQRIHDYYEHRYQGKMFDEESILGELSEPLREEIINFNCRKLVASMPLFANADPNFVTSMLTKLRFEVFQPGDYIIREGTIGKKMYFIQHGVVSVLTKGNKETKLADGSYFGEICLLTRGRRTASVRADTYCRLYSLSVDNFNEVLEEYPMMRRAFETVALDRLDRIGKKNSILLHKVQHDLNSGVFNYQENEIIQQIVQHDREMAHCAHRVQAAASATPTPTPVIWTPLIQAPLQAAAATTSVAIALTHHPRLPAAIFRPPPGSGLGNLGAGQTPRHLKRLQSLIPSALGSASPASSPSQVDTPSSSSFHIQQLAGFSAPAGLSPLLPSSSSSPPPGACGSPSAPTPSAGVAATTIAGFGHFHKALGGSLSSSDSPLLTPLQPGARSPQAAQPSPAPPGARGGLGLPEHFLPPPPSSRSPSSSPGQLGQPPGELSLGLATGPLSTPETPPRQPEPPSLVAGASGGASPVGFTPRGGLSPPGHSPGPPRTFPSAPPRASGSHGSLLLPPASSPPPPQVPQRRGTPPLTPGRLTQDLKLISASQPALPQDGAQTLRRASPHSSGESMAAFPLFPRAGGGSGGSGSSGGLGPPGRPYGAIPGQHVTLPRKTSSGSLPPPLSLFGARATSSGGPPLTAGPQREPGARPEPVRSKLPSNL
Chain of HCN2 (Q9UL51 whole entry): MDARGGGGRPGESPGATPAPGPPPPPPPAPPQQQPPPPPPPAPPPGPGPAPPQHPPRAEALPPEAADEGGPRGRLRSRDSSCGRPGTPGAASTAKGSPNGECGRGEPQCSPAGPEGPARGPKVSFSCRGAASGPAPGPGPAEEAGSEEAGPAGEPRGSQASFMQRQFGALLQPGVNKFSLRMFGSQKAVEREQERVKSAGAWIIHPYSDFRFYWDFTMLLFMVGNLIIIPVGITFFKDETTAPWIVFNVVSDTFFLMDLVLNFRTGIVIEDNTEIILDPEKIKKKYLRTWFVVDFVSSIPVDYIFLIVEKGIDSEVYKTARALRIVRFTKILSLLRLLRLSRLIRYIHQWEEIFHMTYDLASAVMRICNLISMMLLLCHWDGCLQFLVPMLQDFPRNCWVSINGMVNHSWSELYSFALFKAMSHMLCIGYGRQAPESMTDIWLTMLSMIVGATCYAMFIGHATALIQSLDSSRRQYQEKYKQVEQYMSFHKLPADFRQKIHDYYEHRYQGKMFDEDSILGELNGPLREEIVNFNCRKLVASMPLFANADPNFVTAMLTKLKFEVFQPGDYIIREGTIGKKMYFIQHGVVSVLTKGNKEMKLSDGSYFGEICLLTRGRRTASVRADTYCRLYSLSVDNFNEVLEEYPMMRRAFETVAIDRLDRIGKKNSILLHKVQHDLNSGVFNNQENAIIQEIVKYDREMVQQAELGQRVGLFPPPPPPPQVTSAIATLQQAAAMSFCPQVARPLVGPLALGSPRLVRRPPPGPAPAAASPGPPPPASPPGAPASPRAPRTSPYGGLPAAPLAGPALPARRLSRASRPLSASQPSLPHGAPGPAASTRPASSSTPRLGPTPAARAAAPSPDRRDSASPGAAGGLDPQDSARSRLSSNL

Regarding `CC(c1ccccn1)C(N)c1ccccc1-c1noc2ccccc12` (single isomer, unassigned; diastereomer 1) [Example 1, 1-[2-(Benzo[d]isoxazol-3-yl)phenyl]-2-(pyridin-2-yl)propan-1-amine hydrochloride (diastereomer 1)], the IC50 on HCN2 is 7.4 µM. Consider `CC(c1ccccn1)C(N)c1ccccc1-c1noc2ccccc12` (single isomer, unassigned; diastereomer 2) [Example 2, 1-[2-(Benzo[d]isoxazol-3-yl)phenyl]-2-(pyridin-2-yl)propan-1-amine hydrochloride (diastereomer 2)], for which the IC50 at HCN4 is above 30 µM; on HCN2, 0.96 µM. In the case of `CC(c1ccccn1)C(N)c1ccccc1-c1noc2ccccc12` (single isomer, unassigned; diastereomer 3) [Example 3, 1-[2-(Benzo[d]isoxazol-3-yl)phenyl]-2-(pyridin-2-yl)propan-1-amine hydrochloride (diastereomer 3)], the IC50 is above 30 µM on HCN4 and 2.3 µM on HCN2. For the compound `CS(=O)(=O)c1nc(C[C@H](N)c2ccccc2-c2noc3ccccc23)ccc1F` [Example 7, (S)-1-[2-(Benzo[d]isoxazol-3-yl)phenyl]-2-(5-fluoro-6-methylsulfonylpyridine-2-yl)ethan-1-amine hydrochloride], the IC50 on HCN2 worked out at 5.7 µM.

As to `Cc1ccc(C(=O)N(C)C)nc1C[C@H](N)c1ccccc1-c1noc2ccccc12` [Example 8, (S)-6-{2-Amino-2-[2-(benzo[d]isoxazol-3-yl)phenyl]ethyl}-N,N,5-trimethylpyridine-2-carboxamide], the IC50 at HCN2 was determined as 2.5 µM. Consider `C#Cc1ccc2c(-c3ccccc3[C@@H](N)Cc3ccccn3)noc2c1` [Example 31, (S)-1-[2-(6-Ethynylbenzo[d]isoxazol-3-yl)phenyl]-2-(pyridine-2-yl)ethan-1-amine hydrochloride], for which the values for the IC50 on HCN4 and at HCN2 were 6.7 µM and 1.6 µM, respectively. Turning to `N[C@@H](Cc1ccccn1)c1ccccc1-c1noc2cc(C#CCO)ccc12` [Example 32, (S)-1-[2-(6-[3-Hydroxyprop-1-yn-1-yl]benzo[d]isoxazol-3-yl)phenyl]-2-(pyridine-2-yl)ethan-1-amine hydrochloride], the IC50 at HCN2 is 8.5 µM.

As to `N[C@@H](Cc1ccccn1)c1ccccc1-c1noc2cc(C3CC3)ccc12` [Example 34, (S)-1-[2-(6-Cyclopropylbenzo[d]isoxazol-3-yl)phenyl]-2-(pyridine-2-yl)ethan-1-amine], the IC50 on HCN2 stood at 16.7 µM.

For the compound `CC(O)c1ccc2c(-c3ccccc3[C@@H](N)Cc3ccccn3)noc2c1` (stereo partly drawn) [Example 35, (S)-1-[2-(6-[1-Hydroxyethyl]benzo[d]isoxazol-3-yl)phenyl]-2-(pyridine-2-yl)ethan-1-amine], the IC50 at HCN2 came to 8.9 µM.

As to `N#Cc1ccc(-c2noc3ccccc23)c([C@@H](N)Cc2ccccn2)c1` [Example 37, (S)-1-[2-(Benzo[d]isoxazol-3-yl)-5-cyanophenyl]-2-(pyridine-2-yl)ethan-1-amine hydrochloride], the IC50 on HCN2 is 14 µM. For the compound `Cc1ccc([C@@H](N)Cc2ccccn2)c(-c2noc3ccccc23)c1` [Example 38, (S)-1-[2-(Benzo[d]isoxazol-3-yl)-4-methylphenyl]-2-(pyridine-2-yl)ethan-1-amine hydrochloride], the half-maximal inhibitory concentration (IC50) on HCN2 was 13 µM.

For the compound `N[C@@H](Cc1cccc(C(O)CO)n1)c1ccccc1-c1noc2ccccc12` (stereo partly drawn) [Example 41, 1-(6-{(S)-2-Amino-2-[2-(benzo[d]isoxazol-3-yl)phenyl]ethyl}pyridine-2-yl)ethan-1,2-diol hydrochloride], the 50% inhibitory concentration (IC50) was above 30 µM on HCN4 and 14.1 µM on HCN2.

Consider `N[C@@H](Cc1ccccn1)c1ccccc1-c1noc2cccc(Br)c12` [Example 43, (S)-1-[2-(4-Bromobenzo[d]isoxazol-3-yl)phenyl]-2-(pyridine-2-yl)ethan-1-amine hydrochloride], for which the IC50 on HCN2 came to 16 µM. In the case of `CC[C@H](c1ccccn1)[C@H](N)c1ccccc1-c1noc2ccccc12` [Example 45, (1S,2S)-1-[2-(Benzo[d]isoxazol-3-yl)phenyl]-2-(pyridin-2-yl)butan-1-amine hydrochloride], the IC50 at HCN2 amounted to 22.1 µM. `N[C@@H](Cc1cccc(N2CC[C@@H](O)C2)n1)c1ccccc1-c1noc2ccccc12` [Example 50, (R)-1-(6-{(S)-2-Amino-2-[2-(benzo[d]isoxazol-3-yl)phenyl]ethyl}pyridine-2-yl)pyrrolidin-3-ol hydrochloride]: the IC50 at HCN4 turned out to be 4.9 µM; at HCN2, 5.6 µM. For `COCCN(C)c1cccc(C[C@H](N)c2ccccc2-c2noc3ccccc23)n1` [Example 51, (S)-6-{2-Amino-2-[2-(benzo[d]isoxazol-3-yl)phenyl]ethyl}-N-(2-methoxyethyl)-N-methyl pyridin-2-amine hydrochloride], the IC50 amounted to 3.4 µM at HCN4 and 1.7 µM at HCN2. Regarding `N[C@@H](Cc1cccc(N2CC[C@H](O)C2)n1)c1ccccc1-c1noc2ccccc12` [Example 53, (S)-1-(6-{(S)-2-Amino-2-[2-(benzo[d]isoxazol-3-yl)phenyl]ethyl}pyridine-2-yl)pyrrolidin-3-ol hydrochloride], on HCN2, the IC50 came to 6.2 µM. As to `N[C@@H](Cc1cccc(N2CCOCC2)n1)c1ccccc1-c1noc2ccccc12` [Example 54, (S)-1-[2-(Benzo[d]isoxazol-3-yl)phenyl]-2-(6-morpholinopyridine-2-yl)ethane-1-amine hydrochloride], the results for the half-inhibitory concentration (IC50) at HCN4 and at HCN2 were 2.1 µM and 1 µM, respectively. As for `CN(CCO)c1cccc(C[C@H](N)c2ccccc2-c2noc3ccccc23)n1` [Example 55, (S)-2-[(6-{(S)-2-Amino-2-[2-(benzo[d]isoxazol-3-yl)phenyl]ethyl}pyridine-2-yl)(methyl)amino]ethan-1-ol hydrochloride], the half-inhibitory concentration (IC50) stood at 2 µM on HCN4 and 0.8 µM on HCN2.

With `Cc1ccc(Br)nc1C[C@H](N)c1ccccc1-c1noc2ccccc12` [Example 57, (S)-1-[2-(Benzo[d]isoxazol-3-yl)phenyl]-2-(6-bromo-3-methylpyridin-2-yl)ethan-1-amine hydrochloride], the figures for the IC50 at HCN4 and on HCN2 were 2.4 µM and 0.6 µM, respectively.

As for `Cc1ccc(C#N)nc1C[C@H](N)c1ccccc1-c1noc2ccccc12` [Example 58, (S)-1-[2-(Benzo[d]isoxazol-3-yl)phenyl]-2-(6-cyano-3-methylpyridin-2-yl)ethan-1-amine], the IC50 on HCN4 worked out at 7.2 µM; on HCN2, 0.5 µM. The corresponding values for `Cc1ccc(C)c(C[C@H](N)c2ccccc2-c2noc3ccccc23)n1` [Example 59, (S)-1-[2-(benzo[d]isoxazol-3-yl)phenyl]-2(6-vinylpyridin-2-yl)ehtan-1-amine] are 6.8 µM and 0.9 µM. On to `CC(C)n1nc(-c2ccccc2[C@@H](N)Cc2cccc(Br)n2)c2ccccc21` [Example 64, (S)-2-(6-Bromopyridine-2-yl)-1-[2-(1-isopropyl-1H-indazole-3-yl)phenyl]ethan-1-amine hydrochloride], for which the IC50 is 6.4 µM at HCN4 and 1.3 µM at HCN2.

As to `CC(C)n1nc(-c2ccccc2[C@@H](N)Cc2ccccn2)c2ccccc21` [Example 65, (S)-1-[2-(1-isopropyl-1H-indazole-3-yl)phenyl]-2-(pyridine-2-yl)ethan-1-amine hydrochloride], the results for the IC50 at HCN4 and on HCN2 were 5.1 µM and 1.1 µM, respectively. On to `CC(=O)Nc1cccnc1C[C@H](N)c1ccccc1-c1noc2ccccc12` [Example 76, (S)—N-(2-{2-Amino-2-[2-(benzo[d]isoxazol-3-yl)phenyl]ethyl}pyridin-3-yl)acetamide hydrochloride], for which the IC50 at HCN2 is 8.7 µM.

As for `N[C@@H](Cc1ncccc1C1CC1)c1ccccc1-c1noc2ccccc12` [Example 79, (S)-1-[2-(Benzo[d]isoxazol-3-yl)phenyl]-2-(3-cyclopropylpyridin-2-yl)ethan-1-amine formate], the IC50 at HCN2 came out at 4.9 µM.

Turning to `Cc1cc(C#N)cnc1C[C@H](N)c1ccccc1-c1noc2ccccc12` [Example 80, (S)-1-[2-(Benzo[d]isoxazol-3-yl)phenyl]-2-(3-methyl-5-cyanopyridin-2-yl)ethan-1-amine], at HCN2, the IC50 came out at 1.9 µM. On to `COc1ccc(-c2noc3ccccc23)c([C@@H](N)Cc2ccccn2)c1` [Example 82, (S)-1-[2-(Benzo[d]isoxazol-3-yl)-5-methoxyphenyl]-2-(pyridine-2-yl)ethan-1-amine hydrochloride], for which, on HCN2, the IC50 came to 26.6 µM. Consider `N[C@@H](Cc1ccccn1)c1ccc(Br)cc1-c1noc2ccccc12` [Example 85, (S)-1-[2-(Benzo[d]isoxazol-3-yl)-4-bromophenyl]-2-(pyridine-2-yl)ethan-1-amine], for which the IC50 on HCN2 is 13 µM. On the same count and under the same terms, then `N[C@@H](Cc1ccccn1)c1cccc(Br)c1-c1noc2ccccc12` [Example 86, (S)-1-[2-(Benzo[d]isoxazol-3-yl)-3-bromophenyl]-2-(pyridine-2-yl)ethan-1-amine hydrochloride], with 17.4 µM; and `N[C@@H](Cc1ccccn1)c1ccccc1-c1noc2ccc(Br)cc12` [Example 113, (S)-1-[2-(5-Bromobenzo[d]isoxazol-3-yl)phenyl]-2-(pyridine-2-yl)ethan-1-amine hydrochloride], with 22.9 µM; and `COc1cccc(C[C@H](N)c2ccccc2-c2noc3ccccc23)n1` [Example 115, (S)-1-[2-(Benzo[d]isoxazol-3-yl)phenyl]-2-(6-methoxypyridine-2-yl)ethan-1-amine hydrochloride], with 0.69 µM.

As to `N#Cc1cccc(C[C@H](N)c2ccccc2-c2noc3cc(Br)ccc23)n1` [Example 120, (S)-{2-Amino-[2-(6-bromobenzo[d]isoxazol-3-yl)phenyl]ethyl}-6-cyanopyridine], on HCN2, the IC50 is 1.6 µM.

In general, IC50 refers to the point on the concentration scale where inhibition reaches its midpoint.
